Each structure is given as a SMILES string. “Also recorded” adds a separate entry of the source.

The test system of data set [1] is DLD-1 CRC cells. The conditions noted are these: cited from earlier work.
Data set [2] relates to SKOV-3 ovarian cancer xenograft. The conditions noted are these: 4.5 mg/kg/day for 4 weeks; cited from earlier work.
The subject of data set [3] is LS174T xenografts. The experiment in a line: LS174T xenografts in SCID mice. The format is in vivo, mouse. The method, then: In vivo evaluation of anti-cancer activity in LS174T xenografts—The mouse studies were conducted with the approval of the University of Kentucky Institutional Animal Care and Use Committee (2020-3531). All methods were carried out in compliance with the relevant guidelines and regulations according to protocols. The LS174T cells in exponential growth phase were trypsinized and resuspended in 50% Matrigel (Corning, Glendale, Arizona). Cells (1.2×10^6) were subcutaneously injected on the lower flanks of severe combined immunodeficient mice. The tumor volumes were calculated based on the formula Length×width^2/2. When tumors reached an average volume of 100 mm^3, the mice were divided into control and treatment groups (3 male and 3 female mice/group, two tumors on each mouse). After tumors were established, BAY-876 was given to the mice by gavage feeding to the BAY-876 group at the dose of 3 mg/kg/day. DBI-1 was daily intraperitoneally (i.p.) administered to the DBI-1 group at dose of 40 mg/kg mouse body weight. Mice in the combination treatment group were administered both oral BAY-876 at the dose of 3 mg/kg/day and i.p. DBI-1 at dose of 40 mg/kg mouse body weight. Tumors and mouse weights were measured every three days and the experiment was stopped at day 12. Tumors were isolated and fixed in 10% neutral buffered formalin. Tumor sections were analyzed with H&E and Ki-67 staining at Markey Cancer Center's Biospecimen Procurement and Translational Pathology Shared Resource Facility (BPTP SRF).

The conditions of data set [4]: administered in vivo; cited from earlier work.
Data set [5] concerns Pt2377 cells. The experiment in a line: Cell proliferation inhibition assay, Pt2377. In kind it is cell-based. The method, then: Cell proliferation inhibition assay-Cell proliferation inhibition assay was performed as previously reported (48). All compounds to be tested were dissolved at 10 mM in DMSO. The cells were seeded into 12-well plates at a density of 40,000 cells per well in 1 mL of culture medium and were cultured overnight at 37° C. Either 1 μL of the compounds or the vehicle control (DMSO) was added to the cells. After 5 days, the medium was removed, and 200 μL of 0.25% trypsin was added. The cells were resuspended in 800 μL phosphate-buffered saline (PBS) and counted with Vi-CELL XR 2.03 (Beckman Coulter, Inc. USA). The ratio R of the number of viable cells in the compound-treated group to the number of viable cells in the DMSO-treated group was called relative growth rate, and the growth inhibition was calculated as (1−R)*100.

Data set [6] has as its system OVCAR-3 cells. Particulars: growth inhibition; cited from earlier work.
The test system of data set [7] is BT549, MDA-MB-436 and HCC70. The conditions noted are these: 3 μM; cited from earlier work.
Data set [8] concerns AMPK, mTOR and Wnt signaling. The experiment in a line: Western blotting of cell signaling pathways in CRC cells. In kind it is cell-based. On the procedure:
Western blotting-Western blotting was carried out following previously reported procedures (50). Cells were incubated in 6-well plates and were treated with either DMSO or compounds dissolved in DMSO at indicated concentrations. Cells were lysed in 500 μl of lysis buffer: 50 mM HEPES, 100 mM NaCl, 2 mM EDTA, 1% (v/v) glycerol, 50 mM NaF, 1 mM Na3VO4, 1% (v/v) Triton X-100, with protease inhibitors (Sigma, P8340). The cell lysates were centrifuged (18,000×g, 10 min) and then 6× protein loading buffer was added to the suppernatants. The samples were boiled for 3 min and analyzed by standard Western blotting methods with the indicated antibodies.
Western blotting was performed as previously reported procedures (41). Cells were split into 6-well plates and incubated for 24 hours. Either DMSO or compounds dissolved in DMSO at indicated concentrations were added to each well for another 24 hours. Cells were lysed in 500 μL of lysis buffer containing 50 mmol/L HEPES, 100 mmol/L NaCl, 2 mmol/L EDTA, 1% (v/v) glycerol, 50 mmol/L NaF, 1 mmol/L Na3VO4, 1% (v/v) Triton X-100, and protease inhibitors (Sigma, P8340). Cell lysates were centrifuged for 10 minutes (18,000×g), and the supernatants were mixed with 6×protein loading buffer and boiled for 3 minutes. The samples were analyzed by standard Western blotting methods using the appropriate antibodies.
(A western blot detects proteins with antibodies after separation by electrophoresis.)

Data set [9] concerns LS174T cells. The experiment in a line: Seahorse oxygen consumption rate assay. In kind it is cell-based. Particulars: rotenone/antimycin A replaced with compound. The method, then:
Seahorse oxygen consumption rate assay-Seahorse assays were conducted in accordance with a published protocol (50). Mitochondrial bioenergetic measurements were performed using the Seahorse XFe96 Extracellular Flow Analyzer (Agilent Technologies, Santa Clara, CA, USA) to measure the oxygen consumption rate (OCR) in different respiratory states. 2.5×10^4 LS174T cells in 80 μL medium were seeded in XF96 Cell Culture microplate and cultured overnight. Then cell culture media were replaced with Seahorse XF modified media before cells were treated. […] To test whether compounds were ETC complex I or III inhibitors, rotenone and antimycin A were replaced with DMSO, or compounds in DMSO solution.
The Seahorse assays were performed in compliance with a pre-announced procedure (41). Oxygen consumption was measured using the Seahorse XFe96 Extracellular Flow Analyzer (Agilent Technologies, Santa Clara, CA, USA). 2.5×10^4 LS174T cells were seeded in XF96 Cell Culture microplate in 80 μL culture medium and incubated overnight. On the following day, the cell culture media were exchanged with Seahorse XF modified media. 1.0 μmol/L oligomycin, 1.0 μmol/L FCCP, and a mixture of 1.0 μmol/L rotenone and 1.0 μmol/L antimycin A were sequentially added during the measurements. […]

What is called IC50 is the concentration that gives 50% inhibition. As to `Cc1c(NC(=O)c2cc(C(N)=O)nc3cc(F)ccc23)c(C(F)(F)F)nn1Cc1ccc(C#N)cc1` [BAY-876, N^4-[1-(4-cyanobenzyl)-5-methyl-3-(trifluoromethyl)-1H-pyrazol-4-yl]-7-fluoroquinoline-2,4-dicarboxamide], in data set [1], the IC50 is 2 nM. Moreover, in data set [2], the “average weight loss compared to the control group” value is 18%, the “reduction of average tumor volumes” value was 68% and the “reduction of tumor weights” value was 66%. In addition, the tumor growth entry in [3] (BAY-876 3 mg/kg/day oral, DBI-1 40 mg/kg/day i.p., two weeks) is given as “inhibited tumor growth”. The “toxicity based on mice body weight growth rate” value in data set [3] (BAY-876 3 mg/kg/day, DBI-1 40 mg/kg/day) is on record as “No significant toxicity”. Moreover, the oral availability entry in data set [4] is reported as “orally available”. The “inhibition of proliferation of Pt2377 cells” value in data set [5] was “inhibited the proliferation of these cell lines at nanomolar concentrations”. The IC50 in data set [6] is 60 nM. In addition, in data set [7], the “growth of TNBC cell lines BT549, MDA-MB-436 and HCC70” value was “did not inhibit the growth”.

Regarding `O=c1c(-c2ccc(Cl)c(Cl)c2)coc2cc(OCCN3CCN(CCO)CC3)ccc12` [DBI-6, 3-(3,4-dichlorophenyl)-7-(2-(4-(2-hydroxyethyl)piperazin-1-yl)ethoxy)-4H-chromen-4-one], in data set [8] (3 μM alone, LS174T cells, 24 hours), the “effects on AMPK (pAMPK, pACC), mTOR (p70S6K, pS6) and Wnt (Axin2, c-Myc) signaling” value was “activated AMPK signaling (pAMPK and pACC) and inhibited mTOR signaling (p70S6K and pS6); also recorded: more active than DBI-1”. In addition, in [8] (3 μM, LS174T CRC cells), the “AMPK phosphorylation (activation)” value is recorded as “best activity in AMPK activation”. Also, in data set [9], the “oxygen consumption rate (OCR)” value is “suppressed OCR in a similar manner to rotenone/antimycin A”.

These data come from US20250042880A1 (UNIVERSITY OF KENTUCKY RESEARCH FOUNDATION, priority 2021, published 2025).
